Consider 15 compounds from publication PMC9511481 (Journal of Medicinal Chemistry, 2022).

Assay [1] addresses T1, 5-HT2AR (Homo sapiens, UniProt P28223).
T1 construct: expressed in transfected cells; host or cells: HEK 293T (transient transfection)
Put plainly: cell-based. The conditions noted are these: for Emax: HEK-293T, read-out: β-arr2 Emax (%) [CI]. In kind it is cell-based.
Target sequence in this assay (P32121 whole entry): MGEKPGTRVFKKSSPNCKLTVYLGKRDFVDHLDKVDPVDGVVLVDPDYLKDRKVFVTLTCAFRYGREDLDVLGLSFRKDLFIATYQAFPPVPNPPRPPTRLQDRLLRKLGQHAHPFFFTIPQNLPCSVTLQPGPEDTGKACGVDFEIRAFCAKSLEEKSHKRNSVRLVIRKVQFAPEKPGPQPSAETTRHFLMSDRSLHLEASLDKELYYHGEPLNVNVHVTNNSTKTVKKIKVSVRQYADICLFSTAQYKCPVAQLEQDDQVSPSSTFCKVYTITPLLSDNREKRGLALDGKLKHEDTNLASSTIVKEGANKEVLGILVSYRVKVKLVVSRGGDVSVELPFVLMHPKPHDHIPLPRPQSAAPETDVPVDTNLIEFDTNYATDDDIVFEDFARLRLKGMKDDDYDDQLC
Target sequence in this assay (P28223 whole entry): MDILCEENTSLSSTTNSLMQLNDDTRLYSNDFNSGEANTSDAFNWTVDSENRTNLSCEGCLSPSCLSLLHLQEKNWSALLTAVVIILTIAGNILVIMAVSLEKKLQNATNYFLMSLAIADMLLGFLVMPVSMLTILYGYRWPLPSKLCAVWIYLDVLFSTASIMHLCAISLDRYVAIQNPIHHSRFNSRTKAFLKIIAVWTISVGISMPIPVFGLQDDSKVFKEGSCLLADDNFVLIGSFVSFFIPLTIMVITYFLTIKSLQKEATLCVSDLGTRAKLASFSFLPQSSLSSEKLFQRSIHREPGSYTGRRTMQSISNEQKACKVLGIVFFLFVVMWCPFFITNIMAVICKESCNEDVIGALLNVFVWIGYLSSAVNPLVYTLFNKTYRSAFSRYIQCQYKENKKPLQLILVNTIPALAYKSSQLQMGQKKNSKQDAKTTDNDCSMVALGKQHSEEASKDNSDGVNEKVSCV

The target in assay [2] is T1, 5-HT2AR. Put plainly: cell-based. It counts as cell-based.
Target sequence in this assay (P28223 whole entry): as above
The target of assay [3] is T2, 5-HT2AR S159A-mutated receptor (Homo sapiens, UniProt P28223, S159A).
T2 construct: expressed in transfected cells; host or cells: HEK 293T (transient transfection); mutant made by site-directed mutagenesis of 5-HT2AR-LgBiT
Put plainly: cell-based. In kind it is cell-based. The conditions noted are these: for EC50: read-out: β-arr2 EC50 (nM) [CI].
Target sequence in this assay (P28223 whole entry S159A): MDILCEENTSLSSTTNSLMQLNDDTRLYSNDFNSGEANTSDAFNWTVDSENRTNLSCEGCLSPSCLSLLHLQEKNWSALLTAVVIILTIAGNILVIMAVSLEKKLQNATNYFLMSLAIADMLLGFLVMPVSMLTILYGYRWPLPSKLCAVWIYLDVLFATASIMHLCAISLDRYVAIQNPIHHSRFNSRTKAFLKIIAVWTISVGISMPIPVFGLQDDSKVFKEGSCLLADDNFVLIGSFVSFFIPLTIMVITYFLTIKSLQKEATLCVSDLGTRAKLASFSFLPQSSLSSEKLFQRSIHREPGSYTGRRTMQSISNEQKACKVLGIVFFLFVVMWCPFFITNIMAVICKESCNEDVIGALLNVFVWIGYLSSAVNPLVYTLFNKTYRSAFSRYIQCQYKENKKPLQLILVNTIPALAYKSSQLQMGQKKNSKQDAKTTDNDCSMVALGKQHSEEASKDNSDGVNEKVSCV
Target sequence in this assay (P32121 whole entry partner): as the sequence (P32121 whole entry) above

Assay [4] deals with T2, 5-HT2AR S159A-mutated receptor. Put plainly: cell-based. It counts as cell-based. Particulars: for Emax: read-out: miniGαq Emax (%) [CI].
Target sequence in this assay (P28223 whole entry S159A): as the sequence (P28223 whole entry S159A) above
For assay [5], the system named is 5-HT2AR S159A-mutated receptor. Put plainly: cell-based. It counts as cell-based, human.
The target of assay [6] is T1, 5-HT2AR. It counts as cell-based.
Target sequence in this assay (P28223 whole entry): as the sequence (P28223 whole entry) above
For assay [7], the system named is 5-HT2AR S159A-mutated receptor. Put plainly: Bias factor (βarr2 vs miniGαq recruitment), intrinsic relative activity approach, S159A mutated 5-HT2AR. In kind it is cell-based, human. Particulars: 5-HT2A-S159A; for Alternative β-factor: from the combined EC50 and Emax values; for β-factor: average of three experiments.
Protocol: The resulting data were analyzed as described before in more detail.[55] In brief, the obtained time–luminescence profiles are corrected for interwell variability and used for the calculation of the area under the curve (AUC), from which the AUC of the corresponding solvent control is subtracted. Data are then normalized using GraphPad Prism software (San Diego, CA), where the maximal response of the reference agonist is arbitrarily set at 100%. After pooling the data of the individual experiments, the potency and efficacy values are calculated in GraphPad Prism through three parametric nonlinear regression analysis. To quantify the tendency of the measured substances toward preferentially inducing one pathway or the other, bias factors are calculated via the “intrinsic relative activity approach.[56],[57] In this approach, an RAi value is calculated for each substance in each of the measured assays, relative to a reference agonist, using the following formula [drawing 1] The obtained values for the respective pathways are then combined into a bias factor, βi [drawing 2] This formula implies that the value of βi for the reference agonist is 0. A positive bias factor indicates a preference toward the recruitment of βarr2 over miniGαq, compared to the respective reference agonist. A negative bias factor then points to a relative preference toward the recruitment of miniGαq over βarr2. To assess whether the obtained bias factors are statistically significant from 0, a Kruskal–Wallis analysis (which is the nonparametric counterpart of one-way analysis of variance (ANOVA), selected a priori to avoid presumptuous conclusions) with post hoc Dunn’s multiple comparison was carried out in GraphPad Prism. To qualitatively visualize the possible preference of a certain substance towards recruiting either one cytosolic protein or the other, bias plots were generated via GraphPad Prism. To this end, the normalized AUC values obtained in the βarr2 assay are plotted on the x-axis, and those obtained in the miniGαq assay are plotted on the y-axis. On each plot, both the respective reference agonist and one substance of interest are plotted, and a curve is fitted through the centered second-order (quadratic) polynomial fitting.[58]
The test system of assay [8] is 5-HT2AR. The conditions noted are these: 5-HT2AR S159A vs WT; ref 52 (Kim et al.); cited from earlier work.
Assay [9] has as its target T1, 5-HT2AR. On the set-up: method as in PMID 32998000. The conditions noted are these: wild-type 5-HT2AR; previously reported values; cited from earlier work.
Target sequence in this assay (P32121 whole entry): as the sequence (P32121 whole entry) above
Target sequence in this assay (P28223 whole entry): as the sequence (P28223 whole entry) above
Assay [10] has as its target T1, 5-HT2AR. On the set-up: method as in PMID 32998000. Particulars: wild-type 5-HT2AR; previously reported values; cited from earlier work. The source holds these as a separate data set.
Target sequence in this assay (P28223 whole entry): as above
The subject of another assay is 5-HT2AR over 5-HT2CR. Particulars: cited from earlier work.
The test system of assay [11] is 5-HT2AR. On the set-up: method as in PMID 35084960. The conditions noted are these: partial agonist with bias toward βarr2 over Gαq-γ9, reference 5-HT; cited from earlier work.
The mark [12] stands for this setting: read-out: miniGαq EC50 (nM) [CI].
The mark [13] stands for this setting: read-out: β-arr2 EC50 (nM) [CI].

“And” between values parts separate entries of the source, which are not always exact repeats. Identical values can stand only once. Counter-ions that a name gives are not always drawn. Like-named read-outs stand apart in the source and are kept apart here.

For the compound `COc1cc(CCNC2COc3ccccc32)c(OC)cc1Br` (racemic) [(±)-4c, (±)-N-(4-Bromo-2,5-dimethoxyphenethyl)-2,3-dihydrobenzofuran-3-amine Hydrochloride], the “β-arr2 Emax (%) [CI]” value on 5-HT2AR [1] was determined as 85.5%. Further, the maximal response (Emax) at 5-HT2AR [1] was found to be 96.6%. Moreover, the 50% effective concentration (EC50) on 5-HT2AR [1] (β-arr2 EC50 (nM) [CI]) is 28.6 nM and 28.7 nM; at 5-HT2AR [2], 24.5 nM; on 5-HT2AR [2] (setting [12]), 23 nM.

As for `COc1cc(CCNC2CCOc3ccccc32)c(OC)cc1Br` (racemic) [(±)-4d, (±)-N-(4-Bromo-2,5-dimethoxyphenethyl)chroman-4-amine Hydrochloride], on 5-HT2AR [1], the “β-arr2 Emax (%) [CI]” value stood at 108% and the Emax was 121%. Also, on 5-HT2AR [1] (setting [13]), the half-maximal effective concentration (EC50) was 132 nM and 134 nM. The EC50 on 5-HT2AR [2] (setting [12]) is 174 nM and 168 nM.

With `COc1cc(CCNC2COc3ccccc32)c(OC)cc1C#N` (racemic) [(±)-6f, (±)-4-(2-((2,3-Dihydrobenzofuran-3-yl)amino)ethyl)-2,5-dimethoxybenzonitrile Hydrochloride], at 5-HT2AR [1], the “β-arr2 Emax (%) [CI]” value is 76.0% and the Emax was found to be 82.9%. In addition, on 5-HT2AR [1] (setting [13]), the concentration for a half-maximal effect (EC50) was 108 nM. Also, the EC50 on 5-HT2AR [2] (setting [12]) is 631 nM and 608 nM. In addition, in [3], the “Reduction of agonist potency at 5-HT2AR S159A compared to WT, βarr2 recruitment assay” value (shortened to “Reduction … βarr2 recruitment assay”) was about 10 fold; the “β-arr2 Emax (%) [CI]” value was 90.8 [81.9–101] % and 118%; the 50% effective concentration (EC50) is 1020 nM and 1030 nM. In assay [4] (setting [12]), the EC50 amounted to 1650 nM. Also, the “Reduction of agonist potency at 5-HT2AR S159A compared to WT, miniGαq recruitment assay” value (shortened to “Reduction … miniGαq recruitment assay”) in assay [5] was 2.6 fold. On 5-HT2AR [6], the “Alternative β-factor” value was 1.420 and 0.711; the “Bias judged from the bias plot, relative to LSD” value is listed as “highly biased for βarr2 recruitment”; the “Bias judged from the bias plot, relative to serotonin” value was “strong preference toward βarr2 recruitment”; the “Difference in potency between the β-arr2 and miniGαq assays” value is reported as 6 fold. Besides, the “Alternative β-factor” value in [7] (referenced with 5-HT) came to 0.486. The “Alternative β-factor” value in assay [7] (referenced with LSD) is 1.010.

On to `COc1cc(CCNCc2cccc(O)c2)c(OC)cc1Br` [4a, 3-(((4-Bromo-2,5-dimethoxyphenethyl)amino)methyl)phenol Hydrochloride], for which the “β-arr2 Emax (%) [CI]” value on 5-HT2AR [1] was 98.9%; in assay [3], 89.8 [75.8–108] % and 110%. Moreover, the values for the maximum response (Emax) (on 5-HT2AR [1]; in assay [4]) were 112% and 21%, respectively. In addition, the EC50 on 5-HT2AR [1] (setting [13]) was 11.1 nM; at 5-HT2AR [2] (setting [12]), 48.8 nM and 46.9 nM; in assay [3] it was 172 nM and 175 nM; in [4] (setting [12]), 154 nM and 156 nM. Moreover, in assay [3], the “Reduction … βarr2 recruitment assay” value is “approximately 15 fold”. Further, in [4], the “miniGαq Emax (%) [CI]” value worked out at 36.8%. Further, the “Reduction … miniGαq recruitment assay” value in assay [5] is listed as about 3 fold. The “Alternative β-factor” value in [7] (referenced with 5-HT) is 0.096; in assay [7] (referenced with LSD), 0.566.

For `COc1cccc(CNCCc2cc(OC)c(Br)cc2OC)c1` [4b, 2-(4-Bromo-2,5-dimethoxyphenyl)-N-(3-methoxybenzyl)ethan-1-amine Hydrochloride], the “β-arr2 Emax (%) [CI]” value at 5-HT2AR [1] was 100%; in assay [3], 106 [97.5–114] % and 130%. Moreover, the Emax at 5-HT2AR [1] came out at 113%. In addition, the EC50 was 11.1 nM on 5-HT2AR [1] (setting [13]); 44.4 nM and 43.3 nM on 5-HT2AR [2] (setting [12]); 81.9 nM and 80.4 nM in assay [3]; 118 nM in assay [4]; 112 nM in [4] (setting [12]). Moreover, the “Reduction … βarr2 recruitment assay” value in assay [3] amounted to 7 fold. Besides, in [4], the “miniGαq Emax (%) [CI]” value was 44.7 [36.9–53.9] % and 81.0%. The “Alternative β-factor” value in assay [7] (referenced with 5-HT) is 0.043; in assay [7] (referenced with LSD) it was 0.494. In addition, the β-factor in assay [7] (relative to LSD) came out at 0.565; in assay [7] (relative to serotonin (5-HT)), 0.102.

As to `NCCc1c[nH]c2ccc(O)cc12` [5-HT, serotonin, reference compound], in assay [3], the “Drop in efficacy in the S159A-mutated 5-HT2AR, β-arr2” value came out at 33%. Also, in assay [5], the “Drop in efficacy in the S159A-mutated 5-HT2AR, miniGαq” value came out at 173% and the “Reduction … miniGαq recruitment assay” value turned out to be 13 fold. Further, in assay [7] (relative to LSD), the β-factor was determined as 0.550. The compound further had a β-factor in [7] (relative to serotonin (5-HT)) of 0. Besides, in the assay with 5-HT2AR [8], the “Change of efficacy with the S159A mutation, Gαq-dissociation BRET assay” value is given as “remained roughly unchanged” and the “Decrease in potency with the S159A mutation, Gαq-dissociation BRET assay” value is given as 157 fold.

Consider `COc1cc(CCNCc2ccccc2OC)c(OC)cc1C#N` [6b, 2,5-Dimethoxy-4-(2-((2-methoxybenzyl)amino)ethyl)benzonitrile Hydrochloride], for which, on 5-HT2AR [1], the “β-arr2 Emax (%) [CI]” value is 148% and the maximal effect (Emax) stood at 161%. On 5-HT2AR [1] (setting [13]), the EC50 is 1.9 nM and 1.93 nM and 1.94 nM. Besides, the EC50 at 5-HT2AR [2] (setting [12]) is 6.7 nM and 6.71 nM and 6.53 nM.

Regarding `COc1cc(CCNCc2ccccc2F)c(OC)cc1C#N` [6c, 4-(2-((2-Fluorobenzyl)amino)ethyl)-2,5-dimethoxybenzonitrile Hydrochloride], the “β-arr2 Emax (%) [CI]” value on 5-HT2AR [1] is 105%; in assay [3], 86.6 [81.5–92.0] % and 113%. Moreover, the Emax at 5-HT2AR [1] was determined as 114%. For the same compound, the EC50 at 5-HT2AR [1] (setting [13]) was 53.2 nM and 53.3 nM; on 5-HT2AR [2] (setting [12]), 168 nM and 164 nM; in assay [3], 661 nM and 645 nM; in [4] it was 899 nM; in assay [4] (setting [12]) it was 1130 nM. In assay [3], the “Reduction … βarr2 recruitment assay” value is given as 12 fold. Also, the “Reduction … miniGαq recruitment assay” value in assay [5] was 7 fold. Further, the “Alternative β-factor” value in [7] (referenced with 5-HT) came to 0.237; in assay [7] (referenced with LSD), 0.842. Besides, the values for the β-factor in assay [7] (relative to LSD) and in [7] (relative to serotonin (5-HT)) were 0.731 and 0.186, respectively.

On to `COc1cc(CCNCc2cccc3c2OCO3)c(OC)cc1C#N` [6d, 4-(2-((Benzo[d][1,3]dioxol-4-ylmethyl)amino)ethyl)-2,5-dimethoxybenzonitrile Hydrochloride], for which the “β-arr2 Emax (%) [CI]” value on 5-HT2AR [1] is on record as 106%. Further, the Emax at 5-HT2AR [1] came out at 114%. Moreover, the EC50 on 5-HT2AR [1] (setting [13]) is 17 nM and 17.1 nM; on 5-HT2AR [2] (setting [12]), 45.1 nM and 47.3 nM.

Consider `COc1cc(CCNCc2cccc(O)c2)c(OC)cc1C#N` [6e, 4-(2-((3-Hydroxybenzyl)amino)ethyl)-2,5-dimethoxybenzonitrile Hydrochloride], for which the “β-arr2 Emax (%) [CI]” value was 97.5% at 5-HT2AR [1] and 84.1% in [3]. The maximal response (Emax) on 5-HT2AR [1] was 106%; in assay [3] (read-out: β-arr2 Emax (%) [CI]), 68.2%; in [4] it was 12.9%. The concentration for a half-maximal effect (EC50) on 5-HT2AR [1] (setting [13]) was 84.5 nM; on 5-HT2AR [2] (setting [12]) it was 301 nM and 299 nM; in [3], 939 nM and 938 nM; in assay [4] (setting [12]) it was 2060 nM. Besides, the “Reduction … βarr2 recruitment assay” value in [3] is recorded as about 10 fold. Besides, the “miniGαq Emax (%) [CI]” value in assay [4] turned out to be 22.9%. For the same compound, in [5], the “Reduction … miniGαq recruitment assay” value is listed as 6.9 fold. Moreover, the “Alternative β-factor” value in assay [7] (referenced with 5-HT) was determined as 0.577; in [7] (referenced with LSD), 1.050.

Take `COc1cc(CCNCc2ccccc2O)c(OC)cc1I` [25I-NBOH]: the “Emax, βarr2 assay” value on 5-HT2AR [9] was 135–141%. Moreover, the “Emax, miniGαq assay” value at 5-HT2AR [10] is 111–160%.

With `COc1cc(CCNCc2ccccc2OC)c(OC)cc1I` [25I-NBOMe], the “Emax, βarr2 assay” value on 5-HT2AR [9] is listed as 135–141%. On 5-HT2AR [10], the “Emax, miniGαq assay” value is 111–160%.

As to `COc1cc(CC2CCCC(c3ccccc3OC)N2)c(OC)cc1Br` [(S,S)-DMBMPP], in the assay with 5-HT2AR over 5-HT2CR, the “Selectivity over 5-HT2CR” value is recorded as 124 fold.

Turning to `COc1ccccc1CCCN1CC[C@H]2[C@@H](C1)c1cccc3c1N2CCN3C` [IHCH-7086], the Emax with 5-HT2AR [11] is listed as 13%.

As for `CCN(CC)C(=O)[C@@H]1C=C2c3cccc4[nH]cc(c34)C[C@H]2N(C)C1` [LSD, lysergic acid diethylamide, reference compound], the “β-arr2 Emax (%) [CI]” value was 90.7% at 5-HT2AR [1]; 99.9 [93.7–106] % and 128% in assay [3]. For the same compound, on 5-HT2AR [1], the Emax was 99.7%. In addition, the β-factor in assay [7] (relative to LSD) was 0; in assay [7] (relative to serotonin (5-HT)) it was -0.533.

The Emax is the greatest response seen or fitted, relative to the assay's reference. The EC50 is the concentration at which the effect is half-maximal.
